Publication PMC9296036, “A peptide interfering with the dimerization of oncogenic KITENIN protein and its stability suppresses colorectal tumour progression” (Clinical and Translational Medicine, 2022)
Ends that are not written are not given here.

System: Caco2/KITENIN cells
Experiment: Transwell cell invasion assay, Caco2/KITENIN cells
Assay type: cell-based
Details: Caco2 cells transfected with KITENIN-V5, KDIP versus scrambled peptide
Experimental: Cell invasion was measured using the transwell migration apparatus as described.[18] Briefly, cultured cells were seeded into the top of a 24‐well invasion chamber assay plate (Costar). Conditioned DMEM medium containing 10 μg/ml of fibronectin (Calbiochem) and 1% FBS was added to the bottom chamber as a chemoattractant. After 16 h (Caco2) or 48 h (HCT116) of incubation, the cells were stained. Cells at the top surface of the filters were wiped off with a cotton ball, and migrated cells on the bottom surface were counted in four random squares of .5 mm × .5 mm on each filter. The results are shown as the mean ± SEM of the number of cells per field for at least three independent experiments.
Effect of KAI1 C‐terminal interacting tetraspanin (KITENIN) dimerization‐interfering peptide (KDIP) on tumour growth and metastasis in in vivo mouse model of colorectal cancer (CRC). […] For the evaluation of metastasis, total fluorescence emitted from liver nodules expressing iRFP was measured and counted (left panel) or metastatic tumour growth was counted as nodules that migrated to the surface of the liver, and a metastatic score was obtained by multiplying it with size (middle panel). Metastatic score or total fluorescence is represented as mean ± SEM. […] The quantitative amount of each protein was measured by densitometry and is represented as an arbitrary score (mean ± SEM, n = 6). […]

Sequence: YARVRRRGPRRWRLVSDEAV [KDIP]
- cellular invasion by overexpressed KITENIN (in words): reduced
